Patent publication US20070197552A1, “Method and composition for treatment of diabetes, hypertension, chronic heart failure and fluid retentive states” (Novo Nordisk A/S, priority 2002, published 2007)
Structures can show the parent of a compound that is named as a salt.

Columns and labels:
[1] = system: Non-fasted anaesthetised pigs; test: In vivo testing of combination treatment: GLP-1 infusion and iv glucose load under DPP IV inhibition, with and without NEP 24.11 inhibition; set-up: species or system pig
Procedure: Non-fasted anaesthetised pigs (n=5) were given valine-pyrrolidide (250 μmol/kg; V) to inhibit DPP IV activity throughout the experiment. An intraveneous (iv) infusion of GLP-1 (0.75 pmol/kg/min) was started, during which an iv glucose load (0.2 g/kg over 9 min) was given. 90 min after the end of the first GLP-1 infusion, candoxatril was administered iv (5 mg/kg; C), and the protocol (GLP-1 and glucose infusion) was repeated. In addition, during both GLP-1 infusions, simultaneous blood samples were taken from the carotid artery, the renal, femoral, hepatic and portal veins for determination of arterio-venous GLP-1 concentration differences. Samples were analysed for blood glucose, insulin, glucagon and GLP-1 concentrations.

[2] = anaesthetised pigs, iv GLP-1 infusion

## CC(C)[C@H](N)C(=O)N1CCCC1 [VP, valine-pyrrolidide]
[1]; anaesthetised pigs n=5, iv GLP-1 infusion 0.75 pmol/kg/min, valine-pyrrolidide 250 μmol/kg, candoxatril 5 mg/kg iv, FIG. 1
  plasma levels of GLP-1 (plateau level): 73 ± 13 pmol/L
[1]; anaesthetised pigs, 20 min period following C administration, before start of the GLP-1 infusion, FIG. 4
  glucagon concentrations: 9 ± 2 pmol/L
[1]; anaesthetised pigs, GLP-1 and glucose infusion, FIG. 3
  insulin secretion (AUC27-67 min): 3606 ± 668 pmol·min/L
[1]; anaesthetised pigs, calculated from arterio-venous GLP-1 concentration differences
  renal clearance (organ extraction) of GLP-1: 58.7±4.3%
[1]; [2]
  metabolic clearance rate of GLP-1: 25.1 ± 3.9 mL/min/kg
  plasma t½ of GLP-1: 2.5 ± 0.2 min
[1]; anaesthetised pigs, iv glucose load 0.2 g/kg over 9 min during GLP-1 infusion, FIG. 2
  glucose excursion (ΔAUC2-77 min): 59 ± 4 mmol·min/L
[1]; anaesthetised pigs, iv glucose load during GLP-1 infusion
  glucose elimination rate: 6.6±0.5 %/min

## Cn1c(=O)c2c(nc(N3CC[C@H](N)C3)n2Cc2ccccc2C#N)n(C)c1=O (as salt: HCl) [Example 8, (S) 2-(8-(3-Aminopyrrolidin-1-yl)-1,3-dimethyl-2,6-dioxo-1,2,3,6-tetrahydropurin-7-ylmethyl)benzonitrile]
other
  melting point: 104 to 117 °C

## Cn1c(=O)c2c(nc(N3CC[C@H](N)C3)n2Cc2ccccc2)n(C)c1=O (as salt: HCl) [Example 3, (S) 8-(3-Aminopyrrolidin-1-yl)-7-benzyl-1,3-dimethyl-3,7-dihydropurine-2,6-dione]
other
  melting point: 166 to 169 °C

## Cn1c(=O)c2c(nc(N3CC[C@H](N)C3)n2Cc2ccccc2Br)n(C)c1=O (as salt: HCl) [Example 12, (S) 8-(3-Aminopyrrolidin-1-yl)-7-(2-bromobenzyl)-1,3-dimethyl-3,7-dihydropurine-2,6-dione]
other
  melting point: 215 to 217 °C
